Measurements taken from paper PMC8115619, “Generation of a chemical genetic model for JAK3” (Scientific Reports, 2021).
“Also recorded” adds a separate entry of the source.

What was measured:
[1] = test system: IL-10 induced STAT3 phosphorylation in BMDMs; test: IL-10 induced STAT3 phosphorylation in macrophages; format: cell-based, mouse; conditions: wild type BMDMs, inhibitor 2 h, 10 ng/ml IL-10
Procedure: (§1) (A) BMDMs were isolated from wild type mice. Cells were incubated with the indicated inhibitors in μM for 2 h before stimulation with 10 ng/ml IL-4 for 30 min. The levels of phosphorylated STAT6 were then determined by immunoblotting. (B) As (A) except cells were stimulated 10 ng/ml GM-CSF and the levels of phosphorylated STAT5 determined. (C) As (A) except cells were stimulated 10 ng/ml IL-10 and the levels of phosphorylated STAT3 determined. (D) As (A) except cells were stimulated 10 ng/ml IFNβ and the levels of phosphorylated STAT1 determined. For A–D, levels of ERK1/2 were determined as a loading control.
Bone marrow derived macrophages (BMDMs) were cultured as described. Briefly, bone marrow was flushed in PBS from the femurs and tibias of mice. Cells were cultured on bacterial grade plastic for 7 days at 37 °C, 5% CO2. Cells were then detached using Versene (Gibco), re-plated on tissue culture plastic in BMDM media (in DMEM supplemented with 10% heat inactivated FBS (Labtech), 2 mM L-glutamine, 100 U/ml penicillin G, 100 μg/ml streptomycin and 0.25 μg/ml amphotericin, 5 ng/ml M-CSF) and used within 48 h. Where indicated cells were stimulated with 10 ng/ml IL-4, 10 ng/ml GM-CSF, 10 ng/ml IL-10 or 10 ng/ml IFNβ. All cytokines were from PeproTech.
(§2) Cells were lysed directly into SDS sample buffer and aliquots run on 10% polyacrylamide gels using standard methods. Proteins were transferred onto nitrocellulose membranes, and specific proteins were detected by immunoblotting. Antibodies against tyrosine phosphorylated STATs were from Cell Signaling Technology (phospho-STAT1 #9167, phospho-STAT3 #9131, phospho-STAT5 #4322 and phospho-STAT6 #9361). […] Bands were detected using Clarity ECL reagents from BioRad and imaged on a Licor Odyssey Fc system. Quantification was carried out using Licor Image Studio software. After correction for the ERK1/2 levels to account for loading differences, percentage inhibition was calculated relative to the IL-4 stimulated condition. IC50 values were calculated using the same methods as for the in vitro IC50 values.

[2] = test system: IL-4 induced STAT6 phosphorylation in JAK3 Cys905Ser knockin BMDMs; test: Inhibitor washout, IL-4 induced STAT6 phosphorylation, JAK3 Cys905Ser knockin BMDMs; format: cell-based, mouse; conditions: inhibitor 2 h, washed 3 times in PBS; 10 μM TL6-144, 100 μM PF-06651600
Procedure: To test this, cells were treated with a high concentration of inhibitor for 2 h before being washed 3 times in PBS and then incubated in media without inhibitor for 0.5 to 24 h. […] To confirm this was not the case, similar experiments were done in JAK3 Cys905Ser knockin cells.
BMDMs were isolated from wild type and JAK3 Cys905Ser knockin mice. […] The macrophages were then either stimulated with 10 ng/ml IL-4 for 30 min or washed 3 times in PBS and then incubated in media without inhibitor for the indicated times. The cells were then stimulated with IL-4 for 30 min and STAT6 phosphorylation determined by immunoblotting using levels of ERK1/2 as a loading control.
Briefly, bone marrow was flushed in PBS from the femurs and tibias of mice. Cells were cultured on bacterial grade plastic for 7 days at 37 °C, 5% CO2. […]
Cells were lysed directly into SDS sample buffer and aliquots run on 10% polyacrylamide gels using standard methods[51]. Proteins were transferred onto nitrocellulose membranes, and specific proteins were detected by immunoblotting. […] Bands were detected using Clarity ECL reagents from BioRad and imaged on a Licor Odyssey Fc system. Quantification was carried out using Licor Image Studio software. After correction for the ERK1/2 levels to account for loading differences, percentage inhibition was calculated relative to the IL-4 stimulated condition.

[3] = test system: GM-CSF induced STAT5 phosphorylation in BMDMs; test: GM-CSF induced STAT5 phosphorylation in macrophages; format: cell-based, mouse; conditions: wild type BMDMs, 10 μM inhibitor 2 h, 10 ng/ml GM-CSF
Procedure: as §1
Bone marrow derived macrophages (BMDMs) were cultured as described. Briefly, bone marrow was flushed in PBS from the femurs and tibias of mice. […]
as §2, with “immunoblotting.” for “immunoblotting. Antibodies against tyrosine phosphorylated STATs were from Cell Signaling Technology (phospho-STAT1 #9167, phospho-STAT3 #9131, phospho-STAT5 #4322 and phospho-STAT6 #9361).”

MELK = MELK (Homo sapiens, UniProt Q14680); test: Selectivity screen MELK; format: biochemical; conditions: 1 µM inhibitor, mean
Procedure: (§3) For the in vitro kinase assay, JAK3 (5–20 mU diluted in 50 mM Tris pH 7.5, 0.1 mM EGTA, 0.05% β-mercaptoethanol, 1 mg/ml BSA) was assayed against PDKtide ([…]) in a final volume of 25.5 µl containing 50 mM Tris pH 7.5, 0.1 mM EGTA, 0.05% β-mercaptoethanol, 100 µM substrate peptide, 10 mM magnesium acetate and 0.02 mM [33P-γ-ATP] (50–1000 cpm/pmole) and incubated for 30 min at room temperature. Assays were started by the addition of the ATP and stopped by addition of 5 µl of 0.5 M (3%) orthophosphoric acid and then harvested onto P81 Unifilter plates with a wash buffer of 50 mM orthophosphoric acid. To determine the Km for ATP, assays were run using 1, 5, 10, 20, 50, 100, 200, 400, 500 μM ATP and Km derived by non-linear regression fitting to the Michaelis–Menten equation v = Vmax[S]/(Km + [S]). IC50 values for inhibitors via non-linear regression using a parameter model: Y = Bottom + (Top–Bottom)/(1 + (IC50/X)^HillSlope). Non-linear regression was carried out in Prism (version 8). In vitro selectivity screen was carried out as described previously.

SGK1 = SGK1 (Homo sapiens, UniProt O00141); test: Selectivity screen SGK1; format: biochemical; conditions: 1 µM inhibitor, mean
Procedure: as §3

PKBb = PKBb (Homo sapiens, UniProt P31751); test: Selectivity screen PKBb; format: biochemical; conditions: 1 µM inhibitor, mean; read-out: activity remaining in the presence of the inhibitor: PKBb
Procedure: as §3

STK33 = STK33 (Homo sapiens, UniProt Q9BYT3); test: Selectivity screen STK33; format: biochemical; conditions: 1 µM inhibitor, mean
Procedure: as §3

NEK2a = NEK2a (Homo sapiens, UniProt P51955); test: Selectivity screen NEK2a; format: biochemical; conditions: 1 µM inhibitor, mean
Procedure: as §3

MAPKAP-K3 = MAPKAP-K3 (Homo sapiens, UniProt Q16644); test: Selectivity screen MAPKAP-K3; format: biochemical; conditions: 1 µM inhibitor, mean
Procedure: as §3

TTBK1 = TTBK1 (Homo sapiens, UniProt Q5TCY1); test: Selectivity screen TTBK1; format: biochemical; conditions: 1 µM inhibitor, mean
Procedure: as §3

EIF2AK3 = EIF2AK3 (Homo sapiens, UniProt Q9NZJ5); test: Selectivity screen EIF2AK3; format: biochemical; conditions: 1 µM inhibitor, mean
Procedure: as §3

ASK1 = ASK1 (Homo sapiens, UniProt Q99683); test: Selectivity screen ASK1; format: biochemical; conditions: 1 µM inhibitor, mean
HER4 = HER4 (Homo sapiens, UniProt Q15303); test: Selectivity screen HER4; format: biochemical; conditions: 1 µM inhibitor, mean
Procedure: as §3

OSR1 = OSR1 (Homo sapiens, UniProt O95747); test: Selectivity screen OSR1; format: biochemical; conditions: 1 µM inhibitor, mean
Procedure: as §3

AMPK = test: Selectivity screen AMPK; format: biochemical; conditions: 1 µM inhibitor, mean
PRAK = PRAK (Homo sapiens, UniProt Q8IW41); test: Selectivity screen PRAK; format: biochemical; conditions: 1 µM inhibitor, mean
Procedure: as §3

EF2K = EF2K (Homo sapiens, UniProt O00418); test: Selectivity screen EF2K; format: biochemical; conditions: 1 µM inhibitor, mean
Procedure: as §3

PIM3 = PIM3 (Homo sapiens, UniProt Q86V86); test: Selectivity screen PIM3; format: biochemical; conditions: 1 µM inhibitor, mean
Procedure: as §3

EPH-B4 = EPH-B4 (Homo sapiens, UniProt P54760); test: Selectivity screen EPH-B4; format: biochemical; conditions: 1 µM inhibitor, mean
Procedure: as §3

S6K1 = S6K1 (Homo sapiens, UniProt P23443); test: Selectivity screen S6K1; format: biochemical; conditions: 1 µM inhibitor, mean
Procedure: as §3

EPH-B1 = EPH-B1 (Homo sapiens, UniProt P54762); test: Selectivity screen EPH-B1; format: biochemical; conditions: 1 µM inhibitor, mean
Procedure: as §3

Sequence of PRAK (Q8IW41 whole entry): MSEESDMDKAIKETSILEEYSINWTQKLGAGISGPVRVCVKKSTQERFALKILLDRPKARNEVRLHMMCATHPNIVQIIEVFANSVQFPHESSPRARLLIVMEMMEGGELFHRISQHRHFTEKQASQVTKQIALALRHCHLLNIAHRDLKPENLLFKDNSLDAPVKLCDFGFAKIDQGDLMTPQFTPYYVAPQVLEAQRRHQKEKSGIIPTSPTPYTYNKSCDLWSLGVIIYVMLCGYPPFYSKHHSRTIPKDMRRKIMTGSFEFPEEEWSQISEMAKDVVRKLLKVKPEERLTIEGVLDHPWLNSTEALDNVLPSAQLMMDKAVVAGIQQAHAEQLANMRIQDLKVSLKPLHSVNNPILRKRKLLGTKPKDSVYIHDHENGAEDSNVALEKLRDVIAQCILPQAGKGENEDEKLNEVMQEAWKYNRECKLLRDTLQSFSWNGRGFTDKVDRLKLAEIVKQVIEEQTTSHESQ
Sequence of S6K1 (P23443 whole entry): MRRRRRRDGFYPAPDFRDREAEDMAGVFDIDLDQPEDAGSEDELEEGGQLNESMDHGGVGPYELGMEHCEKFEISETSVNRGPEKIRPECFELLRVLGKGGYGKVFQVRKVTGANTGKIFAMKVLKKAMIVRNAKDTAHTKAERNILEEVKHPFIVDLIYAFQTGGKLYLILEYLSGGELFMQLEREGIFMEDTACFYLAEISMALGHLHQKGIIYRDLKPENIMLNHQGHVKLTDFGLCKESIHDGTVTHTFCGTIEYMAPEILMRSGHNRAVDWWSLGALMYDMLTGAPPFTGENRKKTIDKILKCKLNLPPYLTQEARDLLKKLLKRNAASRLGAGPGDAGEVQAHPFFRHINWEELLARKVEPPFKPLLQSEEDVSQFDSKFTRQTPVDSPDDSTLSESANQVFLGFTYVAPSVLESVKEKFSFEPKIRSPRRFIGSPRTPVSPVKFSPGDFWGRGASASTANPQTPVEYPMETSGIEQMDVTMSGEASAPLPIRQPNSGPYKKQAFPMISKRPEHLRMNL
Sequence of MAPKAP-K3 (Q16644 whole entry): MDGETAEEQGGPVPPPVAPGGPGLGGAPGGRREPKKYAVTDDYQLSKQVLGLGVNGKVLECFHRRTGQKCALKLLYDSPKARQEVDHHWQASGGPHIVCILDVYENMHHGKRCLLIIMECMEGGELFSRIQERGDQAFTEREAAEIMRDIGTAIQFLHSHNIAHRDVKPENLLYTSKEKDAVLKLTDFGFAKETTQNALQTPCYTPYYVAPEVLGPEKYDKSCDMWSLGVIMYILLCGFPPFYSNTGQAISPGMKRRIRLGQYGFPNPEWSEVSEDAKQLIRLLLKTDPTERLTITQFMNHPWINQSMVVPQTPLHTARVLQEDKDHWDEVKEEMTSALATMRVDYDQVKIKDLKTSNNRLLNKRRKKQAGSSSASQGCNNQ
Sequence of EPH-B1 (P54762 18-984): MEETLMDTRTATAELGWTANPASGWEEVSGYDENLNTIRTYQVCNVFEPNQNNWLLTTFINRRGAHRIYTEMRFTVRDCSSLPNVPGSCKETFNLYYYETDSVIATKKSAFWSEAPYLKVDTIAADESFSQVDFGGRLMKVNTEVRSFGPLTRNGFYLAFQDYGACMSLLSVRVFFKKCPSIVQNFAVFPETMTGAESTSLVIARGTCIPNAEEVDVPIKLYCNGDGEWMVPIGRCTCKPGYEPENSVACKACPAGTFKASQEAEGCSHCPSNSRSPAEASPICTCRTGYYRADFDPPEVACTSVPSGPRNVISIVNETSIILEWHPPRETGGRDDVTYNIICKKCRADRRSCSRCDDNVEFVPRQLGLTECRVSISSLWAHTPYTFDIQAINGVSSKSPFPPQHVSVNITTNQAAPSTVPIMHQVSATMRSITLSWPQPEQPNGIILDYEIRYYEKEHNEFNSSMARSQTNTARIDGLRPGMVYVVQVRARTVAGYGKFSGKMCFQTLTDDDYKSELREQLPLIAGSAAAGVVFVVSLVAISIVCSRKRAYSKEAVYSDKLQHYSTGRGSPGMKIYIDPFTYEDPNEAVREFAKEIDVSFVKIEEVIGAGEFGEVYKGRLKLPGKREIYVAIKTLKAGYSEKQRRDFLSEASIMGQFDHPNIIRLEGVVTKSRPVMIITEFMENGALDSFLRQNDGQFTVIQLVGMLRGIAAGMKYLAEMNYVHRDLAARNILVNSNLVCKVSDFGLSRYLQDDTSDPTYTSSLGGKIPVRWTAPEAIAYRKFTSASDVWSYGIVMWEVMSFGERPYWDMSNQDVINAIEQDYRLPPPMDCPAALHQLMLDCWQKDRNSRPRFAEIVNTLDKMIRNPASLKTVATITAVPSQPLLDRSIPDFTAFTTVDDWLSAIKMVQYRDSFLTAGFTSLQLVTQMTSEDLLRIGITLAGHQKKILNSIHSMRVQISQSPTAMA
Sequence of ASK1 (Q99683 whole entry): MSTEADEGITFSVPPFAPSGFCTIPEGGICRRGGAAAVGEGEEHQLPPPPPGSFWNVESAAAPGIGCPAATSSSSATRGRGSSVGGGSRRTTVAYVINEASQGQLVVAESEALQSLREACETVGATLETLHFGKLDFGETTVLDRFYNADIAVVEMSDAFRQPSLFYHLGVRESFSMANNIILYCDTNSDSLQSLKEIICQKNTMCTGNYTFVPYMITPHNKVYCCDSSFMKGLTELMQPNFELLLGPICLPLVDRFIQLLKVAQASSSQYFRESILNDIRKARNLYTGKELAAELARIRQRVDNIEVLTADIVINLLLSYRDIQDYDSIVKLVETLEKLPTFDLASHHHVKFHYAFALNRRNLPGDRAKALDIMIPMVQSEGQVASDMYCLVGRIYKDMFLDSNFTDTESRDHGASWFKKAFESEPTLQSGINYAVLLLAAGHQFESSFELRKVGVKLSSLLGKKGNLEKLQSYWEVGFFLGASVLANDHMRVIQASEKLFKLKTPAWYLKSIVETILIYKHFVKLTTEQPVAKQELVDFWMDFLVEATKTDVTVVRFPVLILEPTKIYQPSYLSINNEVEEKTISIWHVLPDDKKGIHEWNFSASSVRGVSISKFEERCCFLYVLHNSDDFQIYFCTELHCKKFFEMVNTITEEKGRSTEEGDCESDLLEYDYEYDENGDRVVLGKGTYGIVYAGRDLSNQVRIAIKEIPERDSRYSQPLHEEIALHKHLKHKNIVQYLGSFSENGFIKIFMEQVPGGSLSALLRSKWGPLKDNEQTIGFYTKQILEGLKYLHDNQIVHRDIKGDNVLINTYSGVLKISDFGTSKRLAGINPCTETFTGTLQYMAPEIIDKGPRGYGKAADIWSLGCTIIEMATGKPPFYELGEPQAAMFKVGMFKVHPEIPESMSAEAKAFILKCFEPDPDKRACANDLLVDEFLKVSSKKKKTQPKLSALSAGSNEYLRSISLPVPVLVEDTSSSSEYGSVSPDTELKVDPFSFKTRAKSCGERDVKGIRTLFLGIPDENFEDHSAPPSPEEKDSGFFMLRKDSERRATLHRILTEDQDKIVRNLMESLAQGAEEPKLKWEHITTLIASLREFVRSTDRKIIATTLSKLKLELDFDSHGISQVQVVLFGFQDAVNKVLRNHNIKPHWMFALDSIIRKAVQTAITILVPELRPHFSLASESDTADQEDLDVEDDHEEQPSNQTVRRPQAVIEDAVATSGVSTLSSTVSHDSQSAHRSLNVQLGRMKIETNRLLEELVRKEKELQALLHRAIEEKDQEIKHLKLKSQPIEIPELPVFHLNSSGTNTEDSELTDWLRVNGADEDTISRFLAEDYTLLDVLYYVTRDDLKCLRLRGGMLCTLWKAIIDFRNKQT
Sequence of EIF2AK3 (Q9NZJ5 30-1116): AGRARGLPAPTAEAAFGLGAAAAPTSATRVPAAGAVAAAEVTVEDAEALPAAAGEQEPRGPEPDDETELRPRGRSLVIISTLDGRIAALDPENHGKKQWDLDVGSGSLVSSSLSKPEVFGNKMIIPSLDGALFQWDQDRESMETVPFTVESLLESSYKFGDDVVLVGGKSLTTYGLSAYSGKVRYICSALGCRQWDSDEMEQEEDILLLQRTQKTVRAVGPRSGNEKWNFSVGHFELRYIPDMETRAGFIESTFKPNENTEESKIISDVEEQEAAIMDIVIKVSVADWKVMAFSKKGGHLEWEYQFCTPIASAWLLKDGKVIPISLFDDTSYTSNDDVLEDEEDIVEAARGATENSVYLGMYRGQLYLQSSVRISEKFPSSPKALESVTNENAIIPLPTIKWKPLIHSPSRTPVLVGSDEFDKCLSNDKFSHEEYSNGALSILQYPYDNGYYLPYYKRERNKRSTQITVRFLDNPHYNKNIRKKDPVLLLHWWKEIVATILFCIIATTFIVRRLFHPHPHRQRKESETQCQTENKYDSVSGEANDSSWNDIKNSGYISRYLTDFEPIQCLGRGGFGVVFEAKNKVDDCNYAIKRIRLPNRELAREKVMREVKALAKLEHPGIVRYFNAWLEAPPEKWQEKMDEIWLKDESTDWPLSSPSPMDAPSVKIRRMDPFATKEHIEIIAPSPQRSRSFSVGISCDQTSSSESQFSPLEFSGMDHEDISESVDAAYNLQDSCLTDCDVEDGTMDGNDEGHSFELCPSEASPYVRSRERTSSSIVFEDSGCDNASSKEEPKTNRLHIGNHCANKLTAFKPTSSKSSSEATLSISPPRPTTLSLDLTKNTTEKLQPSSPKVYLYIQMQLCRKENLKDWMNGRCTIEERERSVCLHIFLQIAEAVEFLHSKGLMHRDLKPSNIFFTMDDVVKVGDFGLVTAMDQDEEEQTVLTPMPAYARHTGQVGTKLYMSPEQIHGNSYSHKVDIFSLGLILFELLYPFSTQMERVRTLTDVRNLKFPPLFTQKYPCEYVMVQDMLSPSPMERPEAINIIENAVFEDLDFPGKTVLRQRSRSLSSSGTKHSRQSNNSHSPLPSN

With `C=CC(=O)N1C[C@H](Nc2ncnc3[nH]ccc23)CC[C@@H]1C` [PF-06651600, 1-((2S,5R)-5-((7H-Pyrrolo[2,3-d]pyrimidin-4-yl)amino)-2-methylpiperidin-1-yl)prop-2-en-1-one, reference compound] the “effect on IL-10 signaling (IL-10 induced STAT3 phosphorylation)” value (shortened to “effect on IL-10 signaling”) [1] was “did not block”, the “effect on IL-10 signaling” value ([1]; listed as PF-0665160) was “no effect” and the “inhibition of IL-4 induced STAT6 phosphorylation after inhibitor washout, JAK3 Cys905Ser knockin BMDMs” value [2] was “not retained at any time post washout”. The “inhibition of GM-CSF induced STAT5 phosphorylation” value [3] was “Neither TL8-52 or PF-06651600 inhibited; also recorded: did not block”.

For `C=CC(=O)Nc1cccc(CNc2nc(Nc3ccc(N4CCN(C)CC4)cc3OC)ncc2Cl)c1` [TL6-144], the “activity remaining in the presence of the inhibitor: MELK” value (MELK) was 69, the “activity remaining in the presence of the inhibitor: SGK1” value (SGK1) was 100 and the remaining activity at 1 µM (PKBb) was 107%. The “activity remaining in the presence of the inhibitor: STK33” value (STK33) was 81, the “activity remaining in the presence of the inhibitor: NEK2a” value (NEK2a) was 96 and the “activity remaining in the presence of the inhibitor: MAPKAP-K3” value (MAPKAP-K3) was 119. The “activity remaining in the presence of the inhibitor: TTBK1” value (TTBK1) was 80, the “activity remaining in the presence of the inhibitor: EIF2AK3” value (EIF2AK3) was 98 and the “activity remaining in the presence of the inhibitor: ASK1” value (ASK1) was 108. For the same molecule, the “activity remaining in the presence of the inhibitor: HER4” value (HER4) was 9, the “activity remaining in the presence of the inhibitor: OSR1” value (OSR1) was 47 and the “activity remaining in the presence of the inhibitor: AMPK” value (AMPK) was 91. For the same molecule, the “activity remaining in the presence of the inhibitor: PRAK” value (PRAK) was 93, the “activity remaining in the presence of the inhibitor: EF2K” value (EF2K) was 95 and the “inhibition of IL-4 induced STAT6 phosphorylation after inhibitor washout, JAK3 Cys905Ser knockin BMDMs” value [2] was “complete loss of inhibition”. For the same molecule, the “activity remaining in the presence of the inhibitor: PIM3” value (PIM3) was 100, the “activity remaining in the presence of the inhibitor: EPH-B4” value (EPH-B4) was 83 and the “activity remaining in the presence of the inhibitor: S6K1” value (S6K1) was 90. The “activity remaining in the presence of the inhibitor: EPH-B1” value (EPH-B1) was 85.

`C=CC(=O)Nc1cccc(CNc2nc(Nc3ccc(N4CCOCC4)cc3)ncc2Cl)c1` [TL8-52] was tested, and the “activity remaining in the presence of the inhibitor: MELK” value (MELK) was 66, the “activity remaining in the presence of the inhibitor: SGK1” value (SGK1) was 89 and the remaining activity at 1 µM (PKBb) was 107%. For the same molecule, the “effect on IL-10 signaling” value [1] was “no effect; also recorded: did not block”, the “activity remaining in the presence of the inhibitor: STK33” value (STK33) was 94 and the “activity remaining in the presence of the inhibitor: NEK2a” value (NEK2a) was 135. For the same molecule, the “activity remaining in the presence of the inhibitor: MAPKAP-K3” value (MAPKAP-K3) was 62, the “activity remaining in the presence of the inhibitor: TTBK1” value (TTBK1) was 100 and the “activity remaining in the presence of the inhibitor: EIF2AK3” value (EIF2AK3) was 90. The “activity remaining in the presence of the inhibitor: ASK1” value (ASK1) was 93, the “activity remaining in the presence of the inhibitor: HER4” value (HER4) was 31 and the “activity remaining in the presence of the inhibitor: OSR1” value (OSR1) was 98. For the same molecule, the “activity remaining in the presence of the inhibitor: AMPK” value (AMPK) was 80, the “activity remaining in the presence of the inhibitor: PRAK” value (PRAK) was 113 and the “activity remaining in the presence of the inhibitor: EF2K” value (EF2K) was 105. The “activity remaining in the presence of the inhibitor: PIM3” value (PIM3) was 90, the “activity remaining in the presence of the inhibitor: EPH-B4” value (EPH-B4) was 104 and the “activity remaining in the presence of the inhibitor: S6K1” value (S6K1) was 87. For the same molecule, the “activity remaining in the presence of the inhibitor: EPH-B1” value (EPH-B1) was 75 and the “inhibition of GM-CSF induced STAT5 phosphorylation” value [3] was “Neither TL8-52 or PF-06651600 inhibited”.
